Experimental data taken from paper PMC10301922, “Anti-Oxidant, Anti-Mutagenic Activity and Safety Evaluation of Antrocin” (Toxics, 2023).
“Also recorded” adds a separate entry of the source. Where two headings read alike, the source gives them in different places.

Legend:
[1] = test system: Salmonella typhimurium TA98
[2] = test system: Salmonella typhimurium TA98; experiment: Ames test (plate incorporation), TA98
[3] = test system: Salmonella typhimurium TA1535; experiment: Ames test (plate incorporation), TA1535
Sprague Dawley rats [4] = experiment: 28-day oral toxicity test: serum biochemistry
[5] = test system: five different strains of Salmonella typhimurium; experiment: Bacterial toxicity test prior to the Ames test; conditions: all tester strains
Sprague Dawley rats [6] = experiment: 28-day oral toxicity test: clinical signs, mortality, overall result
[7] = TA98, with S9, mutagen 2-AA 25 μg/plate, antrocin 0.025 mg/plate
[8] = TA98, with S9, mutagen 2-AA 25 μg/plate, antrocin 0.05 mg/plate
[9] = TA98, with S9, mutagen 2-AA 25 μg/plate, antrocin […]
[10] = TA98, without S9, mutagen 4-NQO 2.5 μg/plate, antrocin 0.025 mg/plate
[11] = TA98, without S9, mutagen 4-NQO 2.5 μg/plate, antrocin 0.05 mg/plate
[12] = TA98, without S9, mutagen 4-NQO 2.5 μg/plate, antrocin […]
[13] = female rats, 7.5 mg/kg oral 28 d
[14] = female rats, 37.5 mg/kg oral 28 d
[15] = male rats, 37.5 mg/kg oral 28 d

## C=C1CC[C@H]2C(C)(C)CCC[C@@]23C(=O)OC[C@@H]13 [Antrocin, (-)-Antrocin]
[1]; [7]
  Inhibition (%) of mutagenicity: 18.17%
  Number of Revertant: 4959.0 ± 739.1 Colony/Plate
[1]; [8]
  Inhibition (%) of mutagenicity: 33.67%
  Number of Revertant: 4024.0 ± 251.1 Colony/Plate
[1]; [9]
  Inhibition (%) of mutagenicity: 6.21%
  Number of Revertant: 5680.3 ± 640.7 Colony/Plate
[1]; TA98, without S9, against direct mutagen 4-NQO
  antimutagenic agent strength: strong anti-mutagenic agent; also recorded: very strong anti-mutagenic effect
[1]; [10]
  Inhibition (%) of mutagenicity: 51.03%
  Number of Revertant: 67.7 ± 2.5 Colony/Plate
[1]; [11]
  Inhibition (%) of mutagenicity: 98.62%
  Number of Revertant: 21.7 ± 1.5 Colony/Plate
[1]; [12]
  Inhibition (%) of mutagenicity: 35.17%
  Number of Revertant: 83.0 ± 3.6 Colony/Plate
[2]; TA98, with S9, 0.003125 mg/plate
  Number of Revertant: 33.7 ± 1.2 Colony/Plate
[2]; TA98, with S9, 0.00625 mg/plate
  Number of Revertant: 32.0 ± 1.6 Colony/Plate
[2]; TA98, with S9, 0.025 mg/plate
  Number of Revertant: 34.3 ± 3.3 Colony/Plate
[2]; TA98, with S9, 0.05 mg/plate
  Number of Revertant: 36.0 ± 4.3 Colony/Plate
[2]; TA98, without S9, 0.00625 mg/plate
  Number of Revertant: 246.0 ± 16.4 Colony/Plate
[2]; TA98, without S9, 0.025 mg/plate
  Number of Revertant: 278.3 ± 4.5 Colony/Plate
[2]; TA98, without S9, 0.05 mg/plate
  Number of Revertant: 270.0 ± 11.2 Colony/Plate
[2]; preliminary tests, TA98, 100 μg/plate
  bacterial mutagenicity: no bacterial mutagenicity
[3]; TA1535, with S9, 0.003125 mg/plate
  Number of Revertant: 17.3 ± 0.5 Colony/Plate
[3]; TA1535, with S9, 0.00625 mg/plate
  Number of Revertant: 15.7 ± 6.1 Colony/Plate
[3]; TA1535, with S9, 0.025 mg/plate
  Number of Revertant: 18.0 ± 1.6 Colony/Plate
[3]; TA1535, with S9, 0.05 mg/plate
  Number of Revertant: 14.0 ± 2.4 Colony/Plate
[3]; TA1535, without S9, 0.003125 mg/plate
  Number of Revertant: 11.7 ± 2.4 Colony/Plate
[3]; TA1535, without S9, 0.00625 mg/plate
  Number of Revertant: 14.7 ± 4.0 Colony/Plate
[3]; TA1535, without S9, 0.025 mg/plate
  Number of Revertant: 10.7 ± 1.2 Colony/Plate
[3]; TA1535, without S9, 0.05 mg/plate
  Number of Revertant: 12.7 ± 2.9 Colony/Plate
Sprague Dawley rats [4]; [13]
  A/G: 1.9 ± 0.2
  ALP: 147.4 ± 27.6 U/L
  ALT: 24.2 ± 1.9 U/L
  AST: 58.0 ± 8.5 U/L
  Albumin: 3.7 ± 0.2 g/dL
  Amylase: 1280.6 ± 111.3 U/L
  BUN: 12.0 ± 1.0 mg/dL
  CK: 100.2 ± 30.8 U/L
  Ca^2+: 9.9 ± 0.1 mg/dL
  Cholesterol: 51.2 ± 9.8 mg/dL
  Creatinine: 0.4 ± 0.0 mg/dL
  GGT: 1–2 U/L
  Globulin: 1.9 ± 0.1 g/dL
  Glucose: 182.4 ± 42.9 mg/dL
  HDL-C: 16.0 ± 3.4 mg/dL
  K^+: 5.2 ± 0.2
  LDH: 92.4 ± 73.8 U/L
  Mg^2+: 2.1 ± 0.1
  Na^+: 139.2 ± 1.6
  Phosphate: 8.5 ± 1.0 mg/dL
  TB: <0.1 mg/dL
  TG: 32.8 ± 5.2 mg/dL
  TP: 5.6 ± 0.2
  UA: 0.9 ± 0.1 mg/dL
Sprague Dawley rats [4]; [14]
  A/G: 1.7 ± 0.1
  ALP: 116.4 ± 35.7 U/L
  ALT: 32.6 ± 6.2 U/L
  AST: 72.6 ± 7.4 U/L
  Albumin: 3.8 ± 0.2 g/dL
  Amylase: 1240.4 ± 239.9 U/L
  BUN: 11.0 ± 0.7 mg/dL
  CK: 129.8 ± 59.5 U/L
  Ca^2+: 10.2 ± 0.2 mg/dL
  Cholesterol: 47.0 ± 11.8 mg/dL
  Cl^−: 104.2 ± 1.3
  Creatinine: 0.3 ± 0.1 mg/dL
  GGT: 1–2 U/L
  Globulin: 2.2 ± 0.1 g/dL
  Glucose: 138.2 ± 21.7 mg/dL
  HDL-C: 14.6 ± 3.8 mg/dL
  K^+: 5.0 ± 0.7
  LDH: 125.4 ± 96.2 U/L
  Mg^2+: 2.4 ± 0.3
  Na^+: 142.6 ± 1.1
  Phosphate: 8.5 ± 0.5 mg/dL
  TB: <0.1 mg/dL
  TG: 27.2 ± 8.1 mg/dL
  TP: 6.0 ± 0.3
  UA: 1.3 ± 0.6 mg/dL
Sprague Dawley rats [4]; male rats, 7.5 mg/kg oral 28 d
  A/G: 1.8 ± 0.1
  ALP: 238.4 ± 43.9 U/L
  ALT: 28.2 ± 3.1 U/L
  AST: 61.4 ± 4.3 U/L
  Albumin: 3.4 ± 0.1 g/dL
  Amylase: 1931.0 ± 241.1 U/L
  BUN: 11.2 ± 1.3 mg/dL
  CK: 185.6 ± 96.1 U/L
  Ca^2+: 9.7 ± 0.2 mg/dL
  Cholesterol: 41.2 ± 6.3 mg/dL
  Creatinine: 0.3 ± 0.0 mg/dL
  GGT: <1 U/L
  Globulin: 1.9 ± 0.1 g/dL
  Glucose: 178.0 ± 25.7 mg/dL
  HDL-C: 12.8 ± 1.5 mg/dL
  K^+: 6.5 ± 0.3
  LDH: 219.6 ± 139.5 U/L
  Mg^2+: 2.0 ± 0.1
  Na^+: 141.8 ± 0.8
  Phosphate: 9.1 ± 0.9 mg/dL
  TB: <0.1 mg/dL
  TG: 33.0 ± 8.1 mg/dL
  TP: 5.3 ± 0.2
  UA: 1.5 ± 0.1 mg/dL
Sprague Dawley rats [4]; [15]
  A/G: 1.8 ± 0.1
  ALP: 256.8 ± 44.0 U/L
  ALT: 27.6 ± 2.1 U/L
  AST: 60.2 ± 3.3 U/L
  Albumin: 3.5 ± 0.2 g/dL
  Amylase: 2016.4 ± 289.7 U/L
  BUN: 11.6 ± 1.8 mg/dL
  CK: 156.4 ± 31.1 U/L
  Ca^2+: 9.9 ± 0.4 mg/dL
  Cholesterol: 44.0 ± 2.5 mg/dL
  Cl^−: 104.6 ± 2.1
  Creatinine: 0.3 ± 0.0 mg/dL
  GGT: <1 U/L
  Globulin: 2.0 ± 0.2 g/dL
  Glucose: 178.0 ± 14.5 mg/dL
  HDL-C: 15.2 ± 2.8 mg/dL
  K^+: 6.4 ± 0.6
  LDH: 109.8 ± 33.5 U/L
  Mg^2+: 2.1 ± 0.2
  Na^+: 141.4 ± 2.3
  Phosphate: 9.6 ± 1.6 mg/dL
  TB: <0.1 mg/dL
  TG: 46.2 ± 8.3 mg/dL
  TP: 5.5 ± 0.4
  UA: 1.6 ± 0.3 mg/dL
[5]
  maximum non-toxic concentration: 0.05 mg/plate
Sprague Dawley rats [6]; 7.5 or 37.5 mg/kg oral 28 d
  toxic effects according to hematology, serum chemistry, urine analysis, histopathological examinations: did not produce any toxic effects
Sprague Dawley rats [6]; 28-day oral toxicity test in rats
  highest dosage with no adverse effect: 37.5 mg/kg/day
